Data reported in PMC12715756 (ACS Chemical Neuroscience, 2025).

Columns and labels:
5-HT2C = biological target: T1, 5-HT2C (Homo sapiens, UniProt P28335); assay: cell-based; settings: for EC50: Gq dissociation BRET; for Emax: HEK-293T, read-out: Emax ± SEM, %5-HT response 5-HT2C
T1 construct: expressed in transfected cells; host or cells: HEK293T (ATCC; RRID:CVCL_0063), transient transfection
T1 sequence (P28335 33-458): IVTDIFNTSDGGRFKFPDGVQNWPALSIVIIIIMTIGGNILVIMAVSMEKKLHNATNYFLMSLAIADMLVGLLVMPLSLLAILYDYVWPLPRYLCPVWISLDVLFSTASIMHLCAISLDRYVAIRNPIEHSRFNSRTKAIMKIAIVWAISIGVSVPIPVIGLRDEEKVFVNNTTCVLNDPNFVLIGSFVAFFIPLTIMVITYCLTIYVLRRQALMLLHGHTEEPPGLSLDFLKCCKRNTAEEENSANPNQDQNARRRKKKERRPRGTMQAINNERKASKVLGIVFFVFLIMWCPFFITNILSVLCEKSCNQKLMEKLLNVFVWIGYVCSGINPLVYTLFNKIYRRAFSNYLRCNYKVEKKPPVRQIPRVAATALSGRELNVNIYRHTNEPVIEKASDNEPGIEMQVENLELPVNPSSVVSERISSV

male Swiss CD-1 mice = assay: Conditioned place preference (CPP); assay type: in vivo; settings: for rewarding effects (CPP preference score): 10 mg/kg i.p., compared to saline; for CPP preference score: lowest dose tested
Method: Male Swiss CD-1 mice (Janvier, Le Genest, France), weighing 30–35 g and aged 6–8 weeks, were used for HLA, thigmotaxis, CPP, and core body temperature experiments. Animals were housed under temperature-controlled conditions (22 ± 1 °C) with a 12 h light/dark cycle and had free access to food and water (standard laboratory diet, Panlab SL, Barcelona, Spain). Doses for HLA, thigmotaxis, CPP, and core body temperature experiments were calculated based on the free base form of each compound. For HTR experiments, male C57BL/6J mice (6–8 weeks old) were obtained from Jackson Laboratories (Bar Harbor, ME, USA) and housed up to four per cage with a reversed light-cycle (lights on at 1900 h, off at 0700 h). Food and water were provided ad libitum, except during behavioral testing. Testing was conducted between 1000 and 1830 h. Doses for HTR experiments were calculated based on the respective salt forms of the compounds.
For this experiment, an apparatus with two distinct compartments, differing in tactile and visual cues, connected by a central corridor, was used. The conditioned place preference (CPP) procedure consisted of three phases: preconditioning, conditioning, and postconditioning. In the preconditioning phase (day 0), mice were placed in the middle of the corridor and allowed to freely explore both compartments for 15 min. The time spent in each compartment was recorded and monitored using specific tracking software (Smart 3.0 Panlab, Barcelona, Spain). In the conditioning phase (day 1–day 8), access to the corridor was closed. […] On alternate days, , mice received a saline i.p. injection and were placed in the other compartment for 30 min. Mice in the control group received a saline injection in every session. The compartments and sessions in which the drug was administered were randomized. In the postconditioning phase (test day), the same conditions as the preconditioning phase were reinstated. A preference score was determined by calculating the difference in time spent in the drug-paired compartment between the post- and preconditioning phases.

DAT [1] = biological target: T2, DAT (Homo sapiens, UniProt Q01959); settings: uptake inhibition; DAT/SERT ratio = 1/DAT / 1/SERT
DAT [2] = biological target: T2, DAT; assay: cell-based; settings: read-out: Emax [95%-CI], DAT mediated [3H]MPP+ release
NET = NET (Homo sapiens, UniProt P23975); assay: Uptake inhibition assay, [3H]MPP+ uptake in HEK293 cells; assay type: cell-based; set-up: expressed in transfected cells; settings: HEK293 cells, 0.02 μM [3H]MPP+; mean ± SD; read-out: IC50 ± SD, [3H]MPP+ uptake NET
[3] = biological target: T3, human organic cation transporter 1 (OCT1) (Homo sapiens, UniProt O15245); assay: as above
T3 sequence (O15245 1-554): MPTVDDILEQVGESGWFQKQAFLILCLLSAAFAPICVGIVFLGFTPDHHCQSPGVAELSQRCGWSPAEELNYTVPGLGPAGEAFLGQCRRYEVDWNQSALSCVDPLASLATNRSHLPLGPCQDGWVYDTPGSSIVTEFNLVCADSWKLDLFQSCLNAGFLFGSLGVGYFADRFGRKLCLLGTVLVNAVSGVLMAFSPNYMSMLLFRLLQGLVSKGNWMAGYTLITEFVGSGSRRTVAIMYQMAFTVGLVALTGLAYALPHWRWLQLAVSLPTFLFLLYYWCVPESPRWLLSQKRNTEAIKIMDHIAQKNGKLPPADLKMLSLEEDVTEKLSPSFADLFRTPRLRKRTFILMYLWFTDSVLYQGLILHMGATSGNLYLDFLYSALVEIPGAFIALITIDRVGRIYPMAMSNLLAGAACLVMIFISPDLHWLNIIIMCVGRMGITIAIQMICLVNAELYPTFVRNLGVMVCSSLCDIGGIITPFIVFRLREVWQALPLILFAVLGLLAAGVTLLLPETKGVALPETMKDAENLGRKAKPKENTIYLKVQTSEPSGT

OCT2 = biological target: T4, OCT2 (Homo sapiens, UniProt O15244); assay: as above
T4 sequence (O15244 1-555): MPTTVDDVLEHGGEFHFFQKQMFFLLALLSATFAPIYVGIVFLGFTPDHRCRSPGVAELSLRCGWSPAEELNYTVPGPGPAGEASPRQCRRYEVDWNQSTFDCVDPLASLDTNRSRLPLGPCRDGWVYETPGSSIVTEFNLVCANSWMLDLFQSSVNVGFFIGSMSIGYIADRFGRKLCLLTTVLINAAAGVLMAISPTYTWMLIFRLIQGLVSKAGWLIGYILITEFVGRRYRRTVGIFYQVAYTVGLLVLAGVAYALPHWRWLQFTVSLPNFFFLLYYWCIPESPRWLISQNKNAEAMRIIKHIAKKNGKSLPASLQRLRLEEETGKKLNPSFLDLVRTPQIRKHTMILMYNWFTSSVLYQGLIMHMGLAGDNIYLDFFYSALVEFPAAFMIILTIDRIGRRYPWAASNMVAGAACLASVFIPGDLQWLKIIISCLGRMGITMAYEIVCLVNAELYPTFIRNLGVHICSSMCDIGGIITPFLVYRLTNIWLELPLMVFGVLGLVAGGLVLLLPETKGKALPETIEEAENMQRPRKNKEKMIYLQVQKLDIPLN

T2 sequence (Q01959 whole entry): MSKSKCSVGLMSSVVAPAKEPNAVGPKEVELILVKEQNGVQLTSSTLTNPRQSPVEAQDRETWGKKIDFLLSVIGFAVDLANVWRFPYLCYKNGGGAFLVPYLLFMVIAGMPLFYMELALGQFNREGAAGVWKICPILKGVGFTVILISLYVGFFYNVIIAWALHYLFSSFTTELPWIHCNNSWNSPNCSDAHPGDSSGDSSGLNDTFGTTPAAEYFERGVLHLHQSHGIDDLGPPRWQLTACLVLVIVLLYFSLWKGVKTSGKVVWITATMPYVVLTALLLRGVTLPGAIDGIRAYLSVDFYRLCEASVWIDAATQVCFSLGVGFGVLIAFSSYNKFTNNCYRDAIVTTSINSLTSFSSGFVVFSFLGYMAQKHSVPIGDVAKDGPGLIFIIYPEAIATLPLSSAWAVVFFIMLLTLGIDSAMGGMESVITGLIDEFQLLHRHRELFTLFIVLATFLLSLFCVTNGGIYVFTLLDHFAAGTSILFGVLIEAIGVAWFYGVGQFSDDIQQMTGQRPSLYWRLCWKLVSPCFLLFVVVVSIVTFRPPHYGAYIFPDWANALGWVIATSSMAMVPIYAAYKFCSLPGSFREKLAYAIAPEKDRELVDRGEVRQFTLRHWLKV
Sequence of NET (P23975 whole entry): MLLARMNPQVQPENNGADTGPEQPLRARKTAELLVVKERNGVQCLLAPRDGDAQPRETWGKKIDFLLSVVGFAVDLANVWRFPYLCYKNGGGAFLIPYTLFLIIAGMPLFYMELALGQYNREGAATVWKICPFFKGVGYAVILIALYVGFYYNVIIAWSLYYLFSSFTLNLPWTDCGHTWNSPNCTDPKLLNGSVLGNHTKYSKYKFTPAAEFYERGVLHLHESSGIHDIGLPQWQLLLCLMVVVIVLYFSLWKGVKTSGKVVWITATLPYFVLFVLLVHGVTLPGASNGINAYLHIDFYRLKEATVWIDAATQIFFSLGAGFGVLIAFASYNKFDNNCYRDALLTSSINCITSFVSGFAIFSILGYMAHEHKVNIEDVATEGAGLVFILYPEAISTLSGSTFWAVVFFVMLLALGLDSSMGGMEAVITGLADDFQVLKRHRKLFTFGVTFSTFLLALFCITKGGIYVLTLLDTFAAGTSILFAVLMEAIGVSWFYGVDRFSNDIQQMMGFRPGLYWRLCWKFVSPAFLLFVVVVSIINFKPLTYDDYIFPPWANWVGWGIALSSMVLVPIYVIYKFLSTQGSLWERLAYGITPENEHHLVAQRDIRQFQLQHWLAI

Row | SMILES | EC50 (5-HT2C) [nM] | Emax (5-HT2C) [%] | rewarding effects (CPP preference score) (male Swiss CD-1 mice) | CPP preference score (male Swiss CD-1 mice) | DAT/SERT ratio (IC50) (DAT [1]) | Emax (DAT [2]) [%] | IC50 (NET) [nM] | IC50 [3] [nM] | IC50 (OCT2) [nM]
1 | CC(N)Cc1ccc2c(c1)SCO2 (stereo not drawn) [SDA, 1-(1,3-benzoxathiol-5-yl)propan-2-amine] | 48.1 | 92.9 ± 4.9 | neither SDA nor SDMA induced significant rewarding effects | significant preference score | 2.42 | 55.4 | 850 ± 240 | 3650 ± 270 | 5700 ± 600
2 | CNC(C)Cc1ccc2c(c1)SCO2 (stereo not drawn) [SDMA, 1-(1,3-benzoxathiol-5-yl)-N-methylpropan-2-amine] | 656 | 79 ± 5.3 | neither SDA nor SDMA induced significant rewarding effects | positive preference score at the same dose, it did not reach significance | 2.15 | 35.4 | 770 ± 390 | 4390 ± 2840 | 4130 ± 600
